Data taken from patent US20060246095A1, “Multiepitope polypeptides for cancer immunotherapy” (HADASIT MEDICAL RESEARCH SERVICES & DEVELOPMENT LTD., priority 2003, published 2006).

What was measured:
[1] = tested on: MHC; conditions: cited from earlier work
[2] = tested on: HHD mice; conditions: HLA-A2.1-restricted; cited from earlier work
[3] = tested on: CTLs in blood lymphocytes of breast carcinoma patients; conditions: personal communications; cited from earlier work
[4] = tested on: T cell clone CK3H6 (A2 restricted gp100 epitope 209-217); experiment: Recognition assay for peptide presentation by DC (IFN-γ release ELISA), T cell clone CK3H6; type: cell-based, human
Protocol: (§1) Dendritic cells were isolated from cytopheresis MNCs of melanoma patients with the HLA haplotypes HIA-A*0201 and HLA-DRβ1*0401. DC were generated from plastic adherent PBMCs cultured in RPMI with 10% human AB-serum, L-glutamine, penicillin-streptomycin, supplemented with GM-CSF 1000 IU/ml and IL-4 1000 IU/ml. By day 6, immature DC were harvested for electroporation.
(§2) 2.5-3×10^6 DC were re-suspended in 100 μl nucleofector solution and added to 5 μg of DNA plasmid in 2-mm electrode gap cuvettes. Transfected DC were immediately plated with CM containing GM/IL4 or let mature using TNFα 100 ng/ml and PGE2 1000 ng/ml. GFP-transfected DCs were collected 16-24 hours later for FACS analysis.
(§3) DC were pulsed with 1 μg/ml of the relevant peptides at 1×10^6 cells/ml. Stimulants were added after 1 hour incubation without washing the peptide.
CK3H6 which recognizes the A2 restricted gp100 epitope 209-217.
(§4) T cell clones were co-incubated with DC in flat 96-well plate for 24 hours. DC were plated immediately after their transfection or pulsing in 6 separated plates, in the presence of GM CSF and IL-4. 1×10^5 T cells were added to 1×10^5 pulsed or transfected DC. In the longitudinal study, T cell clones were added to the transfected/pulsed DC at the following time points: T0=immediately, +12=after 12 hours, 24, 36, 48 and 72 hours. Supernatants were collected after overnight incubation. Interferon gamma release assay was performed to evaluate T cell stimulation using the ELISA method, results are presented in pg/ml.
(§5) Lactacystin was added to DC at concentrations of 25 μM and 50 μM, 4 hours post transfection. DC were incubated with lactacystin for 70 minutes and then washed twice.
(§6) Responding T cells were added after washing the lactacystin and co-incubated. Supernatents were collected after 20 hours.
(§7) For recognition assay of DC epitope presentation, 1×10^5 cells from different T cell clones, that were grown from PBMCs of patients, and were restricted to particular melanoma antigen peptides, were co-incubated with 1×10^5 pulsed or transfected DC, in the presence of GM-CSF and IL-4. T cell clones were added to the transfected/pulsed DC at the following time points: T=0 immediately, T=12, 24, 36, 48, 72 hours. Supernatant was collected after overnight incubation and was subjected to interferon gamma release assay, in order to evaluate the specific T cell activity towards the particular peptide presented by the DC cells.
(§8) The results shown in the following tables represent the amount of Interferon-γ (pg/ml) secreted to the culture medium as an index for T cell stimulation.

[5] = tested on: TIL 1940 (A2 restricted MART-1 epitope 27-35); experiment: Recognition assay for peptide presentation by DC (IFN-γ release ELISA), TIL 1940; type: cell-based, human; conditions: TIL 1940
Protocol: as §1, §2, §3
TIL 1940 which recognizes the A2 restricted MART-1 epitope 27-35.
as §4, §5, §6, §7, §8

[6] = tested on: TIL 1383 (A2 restricted tyrosinase epitope 369-377); experiment: Recognition assay for peptide presentation by DC (IFN-γ release ELISA), TIL 1383; type: cell-based, human; conditions: control plate; peptide-pulsed DC; TIL 1383
Protocol: as §1, §2, §3
TIL 1383 which recognizes the A2 restricted tyrosinase epitope 369-377.
as §4, §5, §6, §7, §8

[7] = tested on: T cell clone RB-154 (gp100 154-162 peptide); experiment: Recognition assay for peptide presentation by DC (IFN-γ release ELISA), clone RB-154; type: cell-based, human; conditions: control plate; peptide-pulsed DC; clone RB-154
Protocol: as §1, §2, §3, §4, §7, §8

[8] = tested on: T cell clone BR-B8 (DR4-restricted gp100 epitope 44-59); experiment: Recognition assay for peptide presentation by DC (IFN-γ release ELISA), clone BR-B8; type: cell-based, human; conditions: control plate; peptide-pulsed DC; clone BR-B8
Protocol: as §1, §2
pcDNA-MEP and pcDNA-gp100 were co-transfected to detect Class II antigen presentation as an internal control.
BR-B8 which recognizes the DR4-restricted gp100 epitope 44-59.
as §4, §5, §6, §7, §8

[9] = tested on: DC with CM (no T cell clone); experiment: Recognition assay, CM in place of a T cell clone (IFN-γ background of DC); type: cell-based, human; conditions: transfected or peptide-pulsed DC, CM instead of T cell clone
Protocol: as §1, §2, §3, §4, §7, §8

[10] = control plate, peptide-pulsed DC, T cell clone CK3H6
[11] = transfected or peptide-pulsed DC, Donor 1, T = 12 hours, CK3H6
[12] = transfected or peptide-pulsed DC, Donor 1, T = 24 hours, CK3H6
[13] = transfected or peptide-pulsed DC, Donor 1, T = 36 hours, CK3H6
[14] = transfected or peptide-pulsed DC, Donor 1, T = 48 hours, CK3H6
[15] = transfected or peptide-pulsed DC, Donor 1, T = 72 hours, CK3H6
[16] = transfected or peptide-pulsed DC, Donor 2, T = 12 hours, CK3H6
[17] = transfected or peptide-pulsed DC, Donor 2, T = 24 hours, CK3H6
[18] = transfected or peptide-pulsed DC, Donor 2, T = 36 hours, CK3H6
[19] = transfected or peptide-pulsed DC, Donor 2, T = 48 hours, CK3H6
[20] = transfected or peptide-pulsed DC, Donor 2, T = 72 hours, CK3H6
[21] = control plate, peptide-pulsed DC
[22] = transfected or peptide-pulsed DC, Donor 1, T = 12 hours
[23] = transfected or peptide-pulsed DC, Donor 1, T = 24 hours
[24] = transfected or peptide-pulsed DC, Donor 1, T = 36 hours
[25] = transfected or peptide-pulsed DC, Donor 1, T = 48 hours
[26] = transfected or peptide-pulsed DC, Donor 1, T = 72 hours
[27] = transfected or peptide-pulsed DC, Donor 2, T = 12 hours
[28] = transfected or peptide-pulsed DC, Donor 2, T = 24 hours
[29] = transfected or peptide-pulsed DC, Donor 2, T = 36 hours
[30] = transfected or peptide-pulsed DC, Donor 2, T = 48 hours
[31] = transfected or peptide-pulsed DC, Donor 2, T = 72 hours

Sequence of MHC (P61769 21-119): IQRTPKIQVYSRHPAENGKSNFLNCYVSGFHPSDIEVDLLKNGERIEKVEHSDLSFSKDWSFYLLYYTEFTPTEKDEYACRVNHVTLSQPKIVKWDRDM

Substance | MHC-binding affinity [1] | CTL induced upon vaccination, lysis of human carcinoma lines [2] | activation of CTLs in blood lymphocytes, patients responding [3] | Interferon-γ secreted to the culture medium [4, 10] | Interferon-γ secreted to the culture medium [4, 11] | Interferon-γ secreted to the culture medium [4, 12] | Interferon-γ secreted to the culture medium [4, 13] | Interferon-γ secreted to the culture medium [4, 14] | Interferon-γ secreted to the culture medium [4, 15] | Interferon-γ secreted to the culture medium [4, 16] | Interferon-γ secreted to the culture medium [4, 17] | Interferon-γ secreted to the culture medium [4, 18] | Interferon-γ secreted to the culture medium [4, 19] | Interferon-γ secreted to the culture medium [4, 20] | Interferon-γ secreted to the culture medium [5, 21] | Interferon-γ secreted to the culture medium [5, 22] | Interferon-γ secreted to the culture medium [5, 23] | Interferon-γ secreted to the culture medium [6] | Interferon-γ secreted to the culture medium [7] | Interferon-γ secreted to the culture medium [8] | also measured
MUC1/A7: peptide A7 (NLTISDVSV) of MUC1, SEQ ID NO: 26 (listed as Homo sapiens) | high | effectively lysed the human carcinoma lines | 2/4 | – | – | – | – | – | – | – | – | – | – | – | – | – | – | – | – | – | –
gp 100 209-217: peptide 209-217 of gp100, SEQ ID NO: 16 | – | – | – | >2000 pg/mL | >2000 pg/mL | 31 pg/mL | 12 pg/mL | 0 pg/mL | 0 pg/mL | >2000 pg/mL | 18 pg/mL | 11 pg/mL | 0 pg/mL | 0 pg/mL | 1 pg/mL | 10 pg/mL | 1 pg/mL | 1 pg/mL | 1 pg/mL | 1 pg/mL | Interferon-γ secreted to the culture medium [5, 24]: 13 pg/mL; Interferon-γ secreted to the culture medium [5, 25]: 0 pg/mL; Interferon-γ secreted to the culture medium [5, 26]: 0 pg/mL; Interferon-γ secreted to the culture medium [5, 27]: 12 pg/mL; Interferon-γ secreted to the culture medium [5, 28]: 6 pg/mL; Interferon-γ secreted to the culture medium [5, 29]: 7 pg/mL; Interferon-γ secreted to the culture medium [5, 30]: 0 pg/mL; Interferon-γ secreted to the culture medium [5, 31]: 0 pg/mL; Interferon-γ secreted to the culture medium ([9]; Donor 1, T = 12 hours): 9 pg/mL; Interferon-γ secreted to the culture medium ([9]; Donor 1, T = 48 hours): 0 pg/mL; Interferon-γ secreted to the culture medium ([9]; Donor 1, T = 72 hours): 0 pg/mL; Interferon-γ secreted to the culture medium ([9]; Donor 2, T = 12 hours): 8 pg/mL; Interferon-γ secreted to the culture medium ([9]; Donor 2, T = 24 hours): 6 pg/mL; Interferon-γ secreted to the culture medium ([9]; Donor 2, T = 36 hours): 8 pg/mL; Interferon-γ secreted to the culture medium ([9]; Donor 2, T = 48 hours): 0 pg/mL; Interferon-γ secreted to the culture medium ([9]; Donor 2, T = 72 hours): 0 pg/mL
TYR 369-377: peptide 369-377 derived from Tyrosinase, SEQ ID NO: 17 | – | – | – | 1 pg/mL | – | – | – | – | – | – | – | – | – | – | 1 pg/mL | – | – | 69 pg/mL | 0 pg/mL | 1 pg/mL | –
MUC1/D6: peptide D6 (LLLTVLTVV) of MUC1, SEQ ID NO: 25 (listed as Homo sapiens) | high | effectively lysed the human carcinoma lines | 3/4 | – | – | – | – | – | – | – | – | – | – | – | – | – | – | – | – | – | –
MART-1 27-35: peptide 27-35 of MART-1, SEQ ID NO: 18 | – | – | – | 1 pg/mL | 11 pg/mL | 6 pg/mL | 10 pg/mL | 0 pg/mL | 0 pg/mL | 10 pg/mL | 10 pg/mL | 8 pg/mL | 0 pg/mL | 0 pg/mL | >2000 pg/mL | 9 pg/mL | 435 pg/mL | 1 pg/mL | 1 pg/mL | 1 pg/mL | Interferon-γ secreted to the culture medium [5, 24]: 99 pg/mL; Interferon-γ secreted to the culture medium [5, 25]: 0 pg/mL; Interferon-γ secreted to the culture medium [5, 26]: 0 pg/mL; Interferon-γ secreted to the culture medium [5, 27]: 448 pg/mL; Interferon-γ secreted to the culture medium [5, 28]: 254 pg/mL; Interferon-γ secreted to the culture medium [5, 29]: 49 pg/mL; Interferon-γ secreted to the culture medium [5, 30]: 0 pg/mL; Interferon-γ secreted to the culture medium [5, 31]: 0 pg/mL; Interferon-γ secreted to the culture medium ([9]; Donor 1, T = 12 hours): 10 pg/mL; Interferon-γ secreted to the culture medium ([9]; Donor 1, T = 48 hours): 0 pg/mL; Interferon-γ secreted to the culture medium ([9]; Donor 1, T = 72 hours): 0 pg/mL; Interferon-γ secreted to the culture medium ([9]; Donor 2, T = 12 hours): 9 pg/mL; Interferon-γ secreted to the culture medium ([9]; Donor 2, T = 24 hours): 7 pg/mL; Interferon-γ secreted to the culture medium ([9]; Donor 2, T = 36 hours): 8 pg/mL; Interferon-γ secreted to the culture medium ([9]; Donor 2, T = 48 hours): 0 pg/mL; Interferon-γ secreted to the culture medium ([9]; Donor 2, T = 72 hours): 0 pg/mL
gp 100 154-162: peptide 154-162 of gp100, SEQ ID NO: 24 | – | – | – | 7 pg/mL | – | – | – | – | – | – | – | – | – | – | 6 pg/mL | – | – | 6 pg/mL | >2000 pg/mL | 1 pg/mL | –
